Assay results: paper PMC5218480 (PLoS ONE, 2017)

System: MV-4-11 cells
Test: Gene expression microarray analysis (Affymetrix PrimeView) and GSEA
Type: cell-based, human
Design: RFU PODN (11730768_x_at) / Fold change /veh PODN (11730768_x_at) / RFU LINC00158 (11744669_a_at) / Fold change /veh LINC00158 (11744669_a_at) / RFU DUSP10 (11751237_a_at) / Fold change /veh DUSP10 (11751237_a_at) / RFU ID3 (11757404_x_at) / Fold change /veh ID3 (11757404_x_at) / RFU PLEKHG5 (11737974_s_at) / Fold change /veh PLEKHG5 (11737974_s_at) / RFU LRRC4B (11730491_at) / Fold change /veh LRRC4B (11730491_at) / RFU GIMAP4 (11747438_a_at) / Fold change /veh GIMAP4 (11747438_a_at) / RFU KRT8 (11758183_x_at) / Fold change /veh KRT8 (11758183_x_at) / RFU CNN1 (11734310_a_at) / Fold change /veh CNN1 (11734310_a_at) / RFU VPS37D (11726825_at) / Fold change /veh VPS37D (11726825_at) / RFU C10orf10 (11716522_x_at) / Fold change /veh C10orf10 (11716522_x_at) / RFU KIR2DL2 /// KIR2DL4 /// KIR2DL5A /// KIR2DL5B /// KIR2DS1 /// KIR2DS2 /// KIR2DS3 /// KIR2DS4 /// KIR3DL3 /// KIR3DL3 /// KIR3DS1 (11738374_at) / Fold change /veh KIR2DL2 /// KIR2DL4 /// KIR2DL5A /// KIR2DL5B /// KIR2DS1 /// KIR2DS2 /// KIR2DS3 /// KIR2DS4 /// KIR3DL3 /// KIR3DL3 /// KIR3DS1 (11738374_at) / RFU C1QL1 (11718748_at) / Fold change /veh C1QL1 (11718748_at) / RFU TMPRSS4 (11747572_a_at) / Fold change /veh TMPRSS4 (11747572_a_at) / RFU HAMP (11756126_x_at) / Fold change /veh HAMP (11756126_x_at) / RFU RNFT2 (11725882_a_at) / Fold change /veh RNFT2 (11725882_a_at) / RFU NR4A2 (11747474_a_at) / Fold change /veh NR4A2 (11747474_a_at) / RFU ABCC12 (11746883_a_at) / Fold change /veh ABCC12 (11746883_a_at) / RFU TMEM136 (11760407_x_at) / Fold change /veh TMEM136 (11760407_x_at) / RFU CLDN22 /// WWC2 (11732394_at) / Fold change /veh CLDN22 /// WWC2 (11732394_at) / RFU HLA-DPB1 (11760878_x_at) / Fold change /veh HLA-DPB1 (11760878_x_at) / RFU SPINT1 (11716480_a_at) / Fold change /veh SPINT1 (11716480_a_at) / RFU GAP43 (11754022_s_at) / Fold change /veh GAP43 (11754022_s_at) / RFU A4GNT (11735810_at) / Fold change /veh A4GNT (11735810_at) / RFU PRB3 (11715151_x_at) / Fold change /veh PRB3 (11715151_x_at) / RFU TUBB4B (11761932_at) / Fold change /veh TUBB4B (11761932_at) / RFU CAPN14 (11732068_a_at) / Fold change /veh CAPN14 (11732068_a_at) / RFU TMCC2 (11721928_a_at) / Fold change /veh TMCC2 (11721928_a_at) / RFU IRGQ (11745062_a_at) / Fold change /veh IRGQ (11745062_a_at) / RFU FAM174B (11720279_a_at) / Fold change /veh FAM174B (11720279_a_at) / RFU TMPRSS4 (11748680_a_at) / Fold change /veh TMPRSS4 (11748680_a_at) / RFU FAM212B (11763350_a_at) / Fold change /veh FAM212B (11763350_a_at) / RFU PLEKHG5 (11743358_a_at) / Fold change /veh PLEKHG5 (11743358_a_at) / RFU ZSCAN30 (11745921_a_at) / Fold change /veh ZSCAN30 (11745921_a_at) / RFU CMKLR1 (11741424_a_at) / Fold change /veh CMKLR1 (11741424_a_at) / RFU LOC101060620 /// MAPK8IP1 (11723275_at) / Fold change /veh LOC101060620 /// MAPK8IP1 (11723275_at) / RFU SPTSSB (11747773_x_at) / Fold change /veh SPTSSB (11747773_x_at) / RFU PRSS12 (11739890_at) / Fold change /veh PRSS12 (11739890_at) / RFU BIN1 (11741810_x_at) / Fold change /veh BIN1 (11741810_x_at) / RFU WNT11 (11732464_a_at) / Fold change /veh WNT11 (11732464_a_at) / RFU C10orf10 (11716521_a_at) / Fold change /veh C10orf10 (11716521_a_at) / RFU C5orf56 (11738089_at) / Fold change /veh C5orf56 (11738089_at) / RFU CYB561 (11721691_x_at) / Fold change /veh CYB561 (11721691_x_at) / RFU ANKRD19P (11752326_a_at) / Fold change /veh ANKRD19P (11752326_a_at) / RFU OR2T12 /// OR2T33 /// OR2T8 (11738714_s_at) / Fold change /veh OR2T12 /// OR2T33 /// OR2T8 (11738714_s_at) / RFU VCAN (11748164_a_at) / Fold change /veh VCAN (11748164_a_at) / RFU JSRP1 (11732532_at) / Fold change /veh JSRP1 (11732532_at) / RFU KRTAP10-11 (11738290_x_at) / Fold change /veh KRTAP10-11 (11738290_x_at) / RFU MYO3A (11730013_a_at) / Fold change /veh MYO3A (11730013_a_at) / RFU EBF3 (11725865_a_at) / Fold change /veh EBF3 (11725865_a_at) / RFU CAMK2N1 (11719241_x_at) / Fold change /veh CAMK2N1 (11719241_x_at) / RFU C5orf56 (11738088_a_at) / Fold change /veh C5orf56 (11738088_a_at) / RFU OLFML3 (11715873_a_at) / Fold change /veh OLFML3 (11715873_a_at) / RFU LOC100653217 /// NTM (11731650_a_at) / Fold change /veh LOC100653217 /// NTM (11731650_a_at) / RFU MAPK11 (11762145_a_at) / Fold change /veh MAPK11 (11762145_a_at) / RFU FIZ1 (11724087_x_at) / Fold change /veh FIZ1 (11724087_x_at) / RFU OASL (11726364_x_at) / Fold change /veh OASL (11726364_x_at) / RFU SOX15 (11748057_x_at) / Fold change /veh SOX15 (11748057_x_at) / RFU CD79A (11719716_a_at) / Fold change /veh CD79A (11719716_a_at) / RFU HIST1H1D (11736915_at) / Fold change /veh HIST1H1D (11736915_at) / RFU CASKIN2 (11723855_a_at) / Fold change /veh CASKIN2 (11723855_a_at) / RFU LOC730098 (11760151_x_at) / Fold change /veh LOC730098 (11760151_x_at) / RFU OR4N2 (11742367_at) / Fold change /veh OR4N2 (11742367_at) / RFU PRRT2 (11749266_a_at) / Fold change /veh PRRT2 (11749266_a_at) / RFU SNX32 (11753110_a_at) / Fold change /veh SNX32 (11753110_a_at) / RFU CDHR5 (11726645_a_at) / Fold change /veh CDHR5 (11726645_a_at) / RFU RCAN1 (11760418_a_at) / Fold change /veh RCAN1 (11760418_a_at) / RFU FAM167A (11723789_a_at) / Fold change /veh FAM167A (11723789_a_at) / RFU FAM26E (11764081_at) / Fold change /veh FAM26E (11764081_at) / RFU ISYNA1 (11749810_s_at) / Fold change /veh ISYNA1 (11749810_s_at) / RFU ACY1 (11761880_at) / Fold change /veh ACY1 (11761880_at) / RFU 11764098_at / Fold change /veh 11764098_at / RFU SAMD14 (11745864_x_at) / Fold change /veh SAMD14 (11745864_x_at) / RFU NPB (11741838_a_at) / Fold change /veh NPB (11741838_a_at) / RFU TMPRSS6 (11731388_a_at) / Fold change /veh TMPRSS6 (11731388_a_at) / RFU KRTAP10-2 (11738614_at) / Fold change /veh KRTAP10-2 (11738614_at) / RFU ARHGAP8 /// PRR5-ARHGAP8 (11727945_x_at) / Fold change /veh ARHGAP8 /// PRR5-ARHGAP8 (11727945_x_at) / RFU KRTAP5-7 /// NADSYN1 (11734609_at) / Fold change /veh KRTAP5-7 /// NADSYN1 (11734609_at) / RFU RASL12 (11751679_a_at) / Fold change /veh RASL12 (11751679_a_at) / RFU CDKN2B (11736163_a_at) / Fold change /veh CDKN2B (11736163_a_at) / RFU PRF1 (11729649_at) / Fold change /veh PRF1 (11729649_at) / RFU, ZNF638 /// ZNF638-IT1 / Fold change vs veh, ZNF638 /// ZNF638-IT1 / RFU, PANK3 / Fold change vs veh, PANK3 / RFU, SH3YL1 / Fold change vs veh, SH3YL1 / RFU, ZEB2 / Fold change vs veh, ZEB2 / RFU, NRIP1 / Fold change vs veh, NRIP1 / RFU, PTTG1IP / Fold change vs veh, PTTG1IP / RFU, CAPN2 / Fold change vs veh, CAPN2 / RFU, MED14 / Fold change vs veh, MED14 / RFU, SNORA58 / Fold change vs veh, SNORA58 / RFU, C1orf63 / Fold change vs veh, C1orf63 / RFU, LRRFIP1 / Fold change vs veh, LRRFIP1 / RFU, NDUFAF7 / Fold change vs veh, NDUFAF7 / RFU, SLC12A2 / Fold change vs veh, SLC12A2 / RFU, IBTK / Fold change vs veh, IBTK / RFU, ESF1 / Fold change vs veh, ESF1 / Fold change vs veh, TMEM50B / RFU, TAOK1 / Fold change vs veh, TAOK1 / RFU, ACBD3 / Fold change vs veh, ACBD3 / RFU, TMA16 / Fold change vs veh, TMA16 / RFU, RWDD3 / Fold change vs veh, RWDD3 / RFU, BCAT1 / Fold change vs veh, BCAT1 / RFU, EDEM3 / Fold change vs veh, EDEM3 / RFU, TMEM33 / Fold change vs veh, TMEM33 / RFU, WDR75 / Fold change vs veh, WDR75 / RFU, AHCTF1 / Fold change vs veh, AHCTF1 / RFU, TFRC / Fold change vs veh, TFRC / RFU, ZDHHC17 / Fold change vs veh, ZDHHC17 / RFU, NOM1 / Fold change vs veh, NOM1 / RFU, ARL8B / Fold change vs veh, ARL8B / RFU, ZBTB11 / Fold change vs veh, ZBTB11 / RFU, TAMM41 / Fold change vs veh, TAMM41 / RFU, KIAA1704 /// LOC100996395 / Fold change vs veh, KIAA1704 /// LOC100996395 / RFU, ING1 / Fold change vs veh, ING1 / RFU, TRMT61B / Fold change vs veh, TRMT61B / RFU, FUBP3 / Fold change vs veh, FUBP3 / RFU, TP53 / Fold change vs veh, TP53 / RFU, TNKS2 / Fold change vs veh, TNKS2 / RFU, ZFP14 / Fold change vs veh, ZFP14 / RFU, ACTR2 / Fold change vs veh, ACTR2 / RFU, PPP3R1 / Fold change vs veh, PPP3R1 / RFU, PIK3R1 / Fold change vs veh, PIK3R1 / RFU, HNRNPA1 / Fold change vs veh, HNRNPA1 / RFU, RNF170 / Fold change vs veh, RNF170 / RFU, ZNF28 / Fold change vs veh, ZNF28 / RFU, RNGTT / Fold change vs veh, RNGTT / RFU, OGT / Fold change vs veh, OGT / RFU, BRD1 / Fold change vs veh, BRD1 / RFU, MARS / Fold change vs veh, MARS / RFU, ZNF655 / Fold change vs veh, ZNF655 / RFU, FAHD1 / Fold change vs veh, FAHD1 / RFU, BDP1 / Fold change vs veh, BDP1 / RFU, LRRCC1 / Fold change vs veh, LRRCC1 / RFU, ARID1A / Fold change vs veh, ARID1A / RFU, ZNF146 / Fold change vs veh, ZNF146 / RFU, ZNF330 / Fold change vs veh, ZNF330 / RFU, GPN3 / Fold change vs veh, GPN3 / RFU, C9orf123 / Fold change vs veh, C9orf123 / RFU, N4BP2L2 / Fold change vs veh, N4BP2L2 / RFU, ARFIP1 / Fold change vs veh, ARFIP1 / RFU, FAM179B / Fold change vs veh, FAM179B / RFU, BCL10 / Fold change vs veh, BCL10 / RFU, UHRF1BP1L / Fold change vs veh, UHRF1BP1L / RFU, BET1 / Fold change vs veh, BET1 / RFU, CNOT2 / Fold change vs veh, CNOT2 / RFU, ZNF268 / Fold change vs veh, ZNF268 / Fold change vs veh, ZNF507 / RFU, DGCR2 / Fold change vs veh, DGCR2 / RFU, WDSUB1 / Fold change vs veh, WDSUB1 / Fold change vs veh, HSP90B1 /// MIR3652 / RFU, ADSS / Fold change vs veh, ADSS / RFU, GK / Fold change vs veh, GK / RFU, ZNF148 / Fold change vs veh, ZNF148 / RFU, TAF9 / Fold change vs veh, TAF9 / RFU, SLC1A5 / Fold change vs veh, SLC1A5 / RFU, SLMO2 / Fold change vs veh, SLMO2 / RFU, ABCC4 / Fold change vs veh, ABCC4 / RFU, LOC101060439 /// RAP1B / Fold change vs veh, LOC101060439 /// RAP1B / RFU, RFX7 / Fold change vs veh, RFX7 / RFU, GTPBP10 / Fold change vs veh, GTPBP10 / RFU, CNEP1R1 / Fold change vs veh, CNEP1R1 / RFU, BIVM-ERCC5 /// ERCC5 / Fold change vs veh, BIVM-ERCC5 /// ERCC5 / RFU, ILF3 / Fold change vs veh, ILF3 / RFU 11762660_at / Fold change /veh 11762660_at / RFU VCAN (11757783_s_at) / Fold change /veh VCAN (11757783_s_at) / RFU DDX43 (11728927_at) / Fold change /veh DDX43 (11728927_at) / RFU KRT8 (11758188_x_at) / Fold change /veh KRT8 (11758188_x_at) / RFU NKD1 (11759106_at) / Fold change /veh NKD1 (11759106_at) / RFU SRD5A1 (11742802_a_at) / Fold change /veh SRD5A1 (11742802_a_at) / RFU TPSAB1 /// TPSB2 (11721975_s_at) / Fold change /veh TPSAB1 /// TPSB2 (11721975_s_at) / RFU GSTM3 (11746129_a_at) / Fold change /veh GSTM3 (11746129_a_at) / RFU IL23R (11737362_x_at) / Fold change /veh IL23R (11737362_x_at) / RFU TMEM51 (11727254_a_at) / Fold change /veh TMEM51 (11727254_a_at) / RFU PIWIL2 (11732686_x_at) / Fold change /veh PIWIL2 (11732686_x_at) / RFU ORM1 (11744905_x_at) / Fold change /veh ORM1 (11744905_x_at) / RFU CCDC152 (11743942_at) / Fold change /veh CCDC152 (11743942_at) / RFU ECM1 (11717891_a_at) / Fold change /veh ECM1 (11717891_a_at) / RFU IL23R (11748794_a_at) / Fold change /veh IL23R (11748794_a_at) / RFU TNFAIP8L3 (11732012_x_at) / Fold change /veh TNFAIP8L3 (11732012_x_at) / RFU MBOAT4 (11741988_at) / Fold change /veh MBOAT4 (11741988_at) / RFU 11764193_at / Fold change /veh 11764193_at / RFU TMEM53 (11763286_at) / Fold change /veh TMEM53 (11763286_at) / RFU MAGEB2 (11727129_at) / Fold change /veh MAGEB2 (11727129_at) / RFU TMEM200A (11744735_a_at) / Fold change /veh TMEM200A (11744735_a_at) / RFU CCDC152 (11751479_a_at) / Fold change /veh CCDC152 (11751479_a_at) / RFU FAM211A (11726209_a_at) / Fold change /veh FAM211A (11726209_a_at) / RFU RGS16 (11746705_a_at) / Fold change /veh RGS16 (11746705_a_at) / RFU VCAN (11755009_s_at) / Fold change /veh VCAN (11755009_s_at) / RFU RHOB (11743442_s_at) / Fold change /veh RHOB (11743442_s_at) / RFU RGS16 (11720943_a_at) / Fold change /veh RGS16 (11720943_a_at) / RFU RGS16 (11720944_at) / Fold change /veh RGS16 (11720944_at) / RFU, VPS4B / Fold change vs veh, VPS4B / RFU, CREB1 / Fold change vs veh, CREB1 / RFU, DNAJC13 / Fold change vs veh, DNAJC13 / RFU, GNAQ / Fold change vs veh, GNAQ / RFU, CDK5R1 / Fold change vs veh, CDK5R1 / RFU, ZRANB3 / Fold change vs veh, ZRANB3 / RFU, CUL4A / Fold change vs veh, CUL4A / RFU, CCNY / Fold change vs veh, CCNY / RFU, UFL1 / Fold change vs veh, UFL1 / RFU, COG3 / Fold change vs veh, COG3 / RFU, DIAPH2 / Fold change vs veh, DIAPH2 / RFU, SKA2 / Fold change vs veh, SKA2 / RFU, AFF3 / Fold change vs veh, AFF3 / RFU, LMF1 / Fold change vs veh, LMF1 / RFU, IPO11 / Fold change vs veh, IPO11 / RFU, DFFB / Fold change vs veh, DFFB / RFU, FOXP1 / Fold change vs veh, FOXP1 / RFU, CARD8 / Fold change vs veh, CARD8 / RFU, STRN3 / Fold change vs veh, STRN3 / RFU, ADK / Fold change vs veh, ADK / RFU, RASSF2 / Fold change vs veh, RASSF2 / RFU, WIPF1 / Fold change vs veh, WIPF1 / RFU, LARP1B / Fold change vs veh, LARP1B / RFU, RASA1 / Fold change vs veh, RASA1 / RFU, RB1 / Fold change vs veh, RB1 / RFU, PPFIA1 / Fold change vs veh, PPFIA1 / RFU, MAT2A / Fold change vs veh, MAT2A / RFU, CCT5 / Fold change vs veh, CCT5 / RFU, WDR92 / Fold change vs veh, WDR92 / RFU, CUX1 / Fold change vs veh, CUX1 / RFU, TTC7A / Fold change vs veh, TTC7A / RFU, TMEM135 / Fold change vs veh, TMEM135 / RFU, DEPTOR / Fold change vs veh, DEPTOR / RFU, CPM / Fold change vs veh, CPM / RFU, DNAJB6 / Fold change vs veh, DNAJB6 / RFU, CACNA2D3 / Fold change vs veh, CACNA2D3 / RFU, DTX4 / Fold change vs veh, DTX4 / RFU, TFCP2 / Fold change vs veh, TFCP2 / RFU, GMCL1 /// GMCL1P1 / Fold change vs veh, GMCL1 /// GMCL1P1 / RFU, AEBP2 / Fold change vs veh, AEBP2 / RFU, SNHG1 /// SNORD22 /// SNORD25 /// SNORD26 /// SNORD27 /// SNORD28 /// SNORD29 /// SNORD31 / Fold change vs veh, SNHG1 /// SNORD22 /// SNORD25 /// SNORD26 /// SNORD27 /// SNORD28 /// SNORD29 /// SNORD31 / Fold change (Aza/veh), C12orf56 (ProbeSet 11735607_a_at) / Fold change (ACY-1035/veh), C12orf56 (ProbeSet 11735607_a_at) / Fold change (Aza/veh), FGFR1OP (ProbeSet 11751329_s_at) / Fold change (ACY-1035/veh), FGFR1OP (ProbeSet 11751329_s_at) / Fold change (Aza/veh), VPS36 (ProbeSet 11739960_a_at) / Fold change (ACY-1035/veh), VPS36 (ProbeSet 11739960_a_at) / RFU SYPL1 (11715823_x_at) / Fold change /veh SYPL1 (11715823_x_at) / RFU IGFBP7 (11715501_s_at) / Fold change /veh IGFBP7 (11715501_s_at) / RFU REEP3 (11722064_at) / Fold change /veh REEP3 (11722064_at) / RFU IGLL1 (11728026_x_at) / Fold change /veh IGLL1 (11728026_x_at): dose or concentration left out as unconfirmed
Conditions: ProbeSet 11733108_at; LIST D

## Nc1ccc(-c2cccs2)cc1NC(=O)c1ccc2c(c1)cc(C1CC1)n2CCN1CCOCC1 [ACY-1035]
  Fold change vs veh, GNAQ: 0.91
